According to patent publication US20140275090A1, “BILE ACID RECYCLING INHIBITORS FOR TREATMENT OF PRIMARY SCLEROSING CHOLANGITIS AND INFLAMMATORY BOWEL DISEASE” (Lumena Pharmaceuticals, Inc., priority 2013, published 2014):

Experiments:
[1] = system: Hepatic Cholesterol 7α-hydroxylase; assay: Cholesterol 7-α hydroxylase activity assay, hamster liver microsomes; format: in vivo, golden Syrian hamster; conditions: 28 days
From the text: Male golden Syrian hamsters (126-147 gm) were obtained from Charles Rivers Laboratories and were single housed in a constant temperature environment with alternating 12-hour light and dark cycles. Hamsters were fed Teklad 7001 rodent meal chow at libitum for two weeks before the experimental studies began and switched to Teklad 7001 rodent meal chow supplemented with 0.24% cholesterol on day one of the 28-day experiment. Water was continuously available to the animals. Hamsters were assigned to groups in a manner that normalized each group by pretreatment body weights. SD-5613 was dissolved in an aqueous solution of 0.2% (w/v) Tween 80 and administered Q.D. by intragastric gavage between 9 a.m. and 10 a.m. each morning using a syringe fitted with a flexible feeding tube. Blood samples were collected after 14- and 28-day treatment periods by orbital sinus and cardiac puncture, respectively. Hamsters were anesthetized but not fasted prior to blood collections. Fecal samples were collected during a 48-hour period at the end of days 14 and 28 (i.e. days 13-14 and 27-28). Hamsters were sacrificed using carbon dioxide asphyxiation to obtain the following tissue samples: liver, kidneys, colon and cecum.
Homogenates of three gram liver tissue samples were prepared in 25 ml homogenization buffer [0.1 M potassium phosphate buffer, pH 7.2, containing 0.1 M sucrose, 50 mM KCl, 50 mM NaF, 5 mM ethylene glycol-bis(β-aminoethyl ether)-N,N,N′,N′-tetraacetic acid (EGTA), 1 mM EDTA, 3 mM dithiothreitol (DTIT), and 1 mM phenylmethylsulfonyl fluoride (PMSF)]. A microsomal fraction was prepared by centrifugation at 10,000×g for ten minutes. The supernatant was subjected to centrifugation at 105,000×g for two hours. The microsomal fraction was resuspended in a 0.1 M Na tetrapyrophosphate buffer (pH 10), with 50 mM NaF, and 1 mM EDTA, and subjected to centrifugation for one hour at 105,000×g. The microsomal fraction was resuspended in the homogenization buffer, and assayed for protein content by Coomassie Protein Plus Assay reagent.
Liver microsomes (1 mg) or 7-α-hydroxycholesterol standard solutions were preincubated for five minutes at 37° C. in a rocking water bath with 500 μl 5× buffer, 1.7 ml water, and 50 μl 0.1% (w/v) cholesterol as substrate in excess. The 5× buffer consists of 0.42 M Na2HPO4, 0.25 mM NaF, 0.08 M KH2PO4, 5 mM EDTA and 10 mM DTT. The reaction tubes were incubated at 37° C. in a rocking water bath throughout the remainder of the assay protocol, with cessation of rocking only for the period of time needed to add solutions. After the preincubation period, 250 μl of 10 mM NADPH was added and incubated for 5 minutes to allow enzymatic conversion of the cholesterol substrate to 7-α-hydroxycholesterol by endogenous 7-α-hydroxylase. The reaction was stopped by addition of 75 μl of 20% sodium cholate. After four minutes, 25 μl of 100 μM 20-α-hydroxycholesterol was added to each tube as an internal recovery standard. The tubes were allowed to rock briefly in the water bath to mix, then 40 μl of 25 U/ml cholesterol oxidase was added and the tubes were incubated for ten minutes to convert 7-α-hydroxycholesterol and 20-α-hydroxycholesterol to their ketone forms, 7-α-hydroxycholesten-3-one and 20-α-hydroxycholesten-3-one. After the enzymatic reactions were completed, the ketone products were isolated by four sequential extractions in 20, 10, 10 and 10 ml petroleum ether, respectively. The collected volumes were evaporated to dryness under a flow of nitrogen gas between each extraction step using a heat block set at 50° C. The final dried samples were resuspended in 125 μl mobile phase solution consisting of 70:30 acetonitrile/methanol for analysis by reversed phase HPLC. Chromatography was performed on a 4.6×250 mm Beckman Ultrosphere ODS reverse phase column in mobile phase solution. […]

serum bile acids = assay: Phase 1 ascending multiple oral doses of LUM001 in healthy adults: serum bile acid analysis; format: in vivo, human; conditions: 28 days
Description: This Phase 1 study was a randomized, double-blind, placebo-controlled study of ascending multiple oral doses of LUM001 in healthy, adult subjects. This study was conducted at a single center. There were 13 LUM001 dosing panels: 10, 20, 60, 100, and 20 mg every morning (qAM) (2) (i.e., the regimen was tested a second time in the study), 5 mg every evening (qPM), 0.5, 1, 2.5, 5, 2.5 (2), 5 (2), and 0.5 to 5 mg qAM dose titration. Most of the dosing panels included subjects treated with matching placebo. No subject participated in more than 1 dosing panel. Subjects were randomized into the study by dosing panel, and all subjects within a dosing panel received study medication at approximately the same time each day. Safety was reviewed for each panel before subsequent panels were initiated. A total of 167 subjects were treated for 28 days, 147 with LUM001 and 20 with placebo. […]
On Day 1 of the Treatment Period, subjects who qualified for enrollment were randomized in the order in which they were admitted to the research facility. […] The safety and tolerability of LUM001 were evaluated by physical examination, ascertainment of adverse signs and symptoms, and clinical laboratory studies. […]
SBA were analyzed as part of the routine clinical analysis of the serum samples collected at each time point.

For `CCCCC1(CCCC)CS(=O)(=O)c2ccc(N(C)C)cc2[C@@H](c2ccc(OCc3ccc(C[N+]45CCN(CC4)CC5)cc3)cc2)[C@H]1O` [LUM001], the “Hepatic Cholesterol 7α-hydroxylase” value ([1]; 5 mg/kg/day) was 50.9 ± 4.8 pmol/mg-port/min, the “Hepatic Cholesterol 7α-hydroxylase, % change from vehicle group” value ([1]; 5 mg/kg/day) was “(+52) %” and the “Hepatic Cholesterol 7α-hydroxylase” value ([1]; 15 mg/kg/day) was 56.5 ± 4.5 pmol/mg-port/min. For the same compound, the “Hepatic Cholesterol 7α-hydroxylase, % change from vehicle group” value ([1]; 15 mg/kg/day) was “(+69) %”, the “Hepatic Cholesterol 7α-hydroxylase” value ([1]; 50 mg/kg/day) was 63.8 ± 5.6 pmol/mg-port/min and the “Hepatic Cholesterol 7α-hydroxylase, % change from vehicle group” value ([1]; 50 mg/kg/day) was “(+90) %”. The “effect on serum bile acids” value (serum bile acids) was “significant reduction”.
